Experimental data: patent EP0686394A1, “Use of N-[[5-(naphthales-1-yl)-1,3-dioxan-2-yl]alkyl]acetamide derivatives for the preparation of medicaments for use in the treatment of neurodegenerative disorders” (SYNTHELABO, priority 1994, dated 1995)
Read-outs that look alike come from different tables or passages of the source.

Legend:
[1] = test system: ischémie cérébrale globale chez la souris; test: global cerebral ischemia test in mice (cardiac arrest induced by intravenous magnesium chloride; survival time); assay type: in vivo; settings: Mus musculus, read-out: dose efficace 3 secondes (DE3sec)
Description: Ainsi les composés utilisables selon l'invention ont été soumis au test de l'ischémie cérébrale globale chez la souris. L'ischémie est due à un arrêt cardiaque induit par une injection intraveineuse rapide de chlorure de magnésium. Dans ce test on mesure le "temps de survie", c'est-à-dire l'intervalle entre le moment de l'injection de chlorure de magnésium et le dernier mouvement respiratoire observable de chaque souris. Ce dernier mouvement est considéré comme l'indice ultime d'une fonction du système nerveux central. L'arrêt respiratoire apparaît approximativement 21 secondes après l'injection de chlorure de magnésium. Des souris mâles (SWISS OF₁ IFFA CREDO) sont étudiées par groupes de 10. Elles sont nourries et abreuvées ad libitum avant les essais. Le temps de survie est mesuré 10 minutes après l'administration intrapéritonéale ou 5 minutes après l'administration intraveineuse dans la veine caudale, des composés de formule (I). Les résultats sont donnés sous la forme de la différence entre le temps de survie mesuré dans un groupe de 10 souris ayant reçu le composé et le temps de survie mesuré dans un groupe de 10 souris ayant reçu le liquide véhicule. Les rapports entre le temps de survie et la dose du composé sont enregistrés graphiquement selon une courbe semilogarithmique. Cette courbe permet le calcul de la "dose efficace 3 secondes" (DE3sec), c'est-à-dire la dose (en mg/kg) qui produit une augmentation de 3 secondes du temps de survie par rapport au groupe témoin de 10 souris traitées par le véhicule. Une augmentation de 3 secondes du temps de survie est à la fois significative statistiquement et reproductible. A titre d'exemple, après injection par voie intrapéritonéale, la DE3sec du trans-N-[3-[5-(6-méthoxynaphtalén-1-yl)-1,3-dioxan-2-yl]propyl]acétamide dans ce test est de 11,4 mg/kg, la DE3sec du cis-N-[3-[5-(6-méthoxynaphtalén-1-yl)-1,3-dioxan-2-yl]propyl]acétamide dans ce test est de 6,1 mg/kg et la DE3sec du trans-N-[3-[5-[6-(cyclopropylméthoxy)naphtalén-1-yl]-1,3-dioxan-2-yl]propyl]acétamide dans ce test est de 6,1 mg/kg. Par voie intraveineuse, après solubilisation dans une solution de 2-hydroxypropyl-β-cyclodextrine, la DE3sec du trans-N-[3-[5-(6-méthoxynaphtalén-1-yl)-1,3-dioxan-2-yl]propyl]acétamide dans ce test est de 2,25 mg/kg.

[2] = test system: ischémie focale permanente par occlusion intraluminale de l'artère cérébrale moyenne chez le rat; test: permanent focal ischemia model by intraluminal occlusion of the middle cerebral artery in the rat (infarct volume); assay type: in vivo; settings: 1 mg/kg intraperitoneal, given 10 minutes, 2 h 30 and 5 h after occlusion; infarct volume evaluated 24 h after occlusion
Description: L'activité neuroprotectrice des composés de formule (I) a été également démontrée dans un modèle d'ischémie focale permanente par occlusion intraluminale de l'artère cérébrale moyenne chez le rat, selon une méthode analogue à celle décrite dans Stroke, 20, 84-91 (1989). Sous anesthésie au méthohexital sodique, on ligature l'artère ptérygopalatine, l'artère carotidienne commune et l'artère carotidienne externe gauche; on introduit un fil de nylon dans l'artère carotidienne interne sur une longueur d'environ 18 mm correspondant à la distance qui sépare la naissance de l'artère carotidienne interne de celle de l'artère cérébrale moyenne. Les composés sont administrés 10 minutes, 2 heures 30 et 5 heures après l'occlusion, aux doses de 0,3; 1; 3 et 10 mg/kg par voie intrapéritonéale. 24 heures après l'occlusion de l'artère cérébrale moyenne, on sacrifie les animaux et on prélève le cerveau. On évalue le volume de l'infarctus cérébral à partir de la mesure de la surface de la nécrose sur 6 coupes coronales colorées par le chlorure de 2,3,5-triphényltétrazolium. A titre d'exemple le trans-N-[3-[5-(6-méthoxynaphtalén-1-yl)-1,3-dioxan-2-yl]propyl]acétamide réduit le volume de l'infarctus cérébral d'environ 30% à la dose de 1 mg/kg.

[3] = ip, 10 min, intraperitoneal injection, survival time measured 10 minutes after administration, dose giving a 3 second increase of survival time vs vehicle group

Row | Compound | ED (3 s increase of survival time) ([1]; 5 min, intravenous route, solubilised in 2-hydroxypropyl-β-cyclodextrine solution, survival time measured 5 minutes after administration) [mg/kg] | ED (3 s increase of survival time) [1, 3] [mg/kg] | réduit le volume de l'infarctus cérébral [2] [%]
1 | COc1ccc2c(cccc2[C@H]2CO[C@H](CCCNC(C)=O)OC2)c1 [trans-N-[3-[5-(6-méthoxynaphtalén-1-yl)-1,3-dioxan-2-yl]propyl]acétamide] | 2.25 | 11.4 | ~30
2 | CC(=O)NCCC[C@H]1OC[C@H](c2cccc3cc(OCC4CC4)ccc32)CO1 [trans-N-[3-[5-[6-(cyclopropylméthoxy)naphtalén-1-yl]-1,3-dioxan-2-yl]propyl]acétamide] | – | 6.1 | –
3 | COc1ccc2c(cccc2[C@H]2CO[C@@H](CCCNC(C)=O)OC2)c1 [cis-N-[3-[5-(6-méthoxynaphtalén-1-yl)-1,3-dioxan-2-yl]propyl]acétamide] | – | 6.1 | –
